In patent publication US7196074B2, “Methods of making, using and pharmaceutical formulations comprising 7α, 11β-dimethyl-17β-hydroxyestra-4, 14-dien-3-one and 17 esters thereof” (The United States of America as represented by the …, priority 2000, dated 2007):

Tests used:
ventral prostate weight = assay: Duration of androgenic activity after subcutaneous injection, ventral prostate weight over weeks in orchidectomized immature rats; format: in vivo, Sprague-Dawley rats; conditions: for ventral prostate weight over time after single subcutaneous injection (in words): 0.6 mg in 0.2 ml aqueous vehicle; for AUC of ventral prostate weight, times greater than for testosterone enanthate in oily carrier: active in aqueous vehicle versus testosterone enanthate in sesame oil/oily carrier, single subcutaneous 0.6 mg
Description: Immature (about 21-day-old) Sprague-Dawley rats were orchidectomized under anesthesia, and randomly assignee to groups of ten animals for each dose level of the active undergoing testing. Each active was administered by subcutaneous injection each day for seven days beginning on the date of the orchidectomy. The animals were sacrificed 24 hours after the last dose, and the ventral prostate and seminal vesicles were excised, cleaned of fat and connective tissue, blotted on moist filter paper and weighed to the nearest 0.1 mg. Regression analysis was performed by conventional methods using a PROPHET data management system. Ventral prostate weight was used as the endpoint because it is the sensitive organ to androgenic stimulation.
Except for testosterone enanthate, each active was formulated in two different carriers: (1) an aqueous suspension and (2) in sesame oil. Testosterone enanthate was formulated using the sesame oil carrier only, because it exists as a liquid at room temperature and could not therefore be formulated as an aqueous suspension.
The carrier used to provide the aqueous suspension was formulated as follows: 1 g benzyl alcohol, 0.5 g sodium carboxylethyl cellulose 50, 0.376 g disodium hydrogen phosphate dihydrate, 1.495 g sodium dihydrogen phosphate dihydrate, with water for injection (WFI) being added to bring volume of the carrier up to 100 ml.
Each formulation was prepared at a concentration of 0.6 mg/0.2 ml.
(§1) Immature (about 21-day-old) Sprague-Dawley rats were orchidectomized under anesthesia, and randomly assignee to groups of 40 or more. Animals received a single subcutaneous injection of 0.6 mg of each ester in 0.2 ml of an aqueous suspending carrier and/or oily carrier (10% ethanol/90% sesame oil or ethyl oleate) on the date of the orchidectomy. In cases where the ester was not solid at room temperature, 10% ethanol/sesame oil or ethyl oleate was used as the carrier. In this example, the carrier used to provide the aqueous suspension was formulated as follows: 1 g benzyl alcohol, 0.5 g sodium carboxylethyl cellulose 50, 0.376 g disodium hydrogen phosphate dihydrate, 1.495 g sodium dihydrogen phosphate dihydrate, with water for injection (WFI) being added to bring volume of the carrier up to 100 ml.
Five animals from each group were sacrificed at weekly or biweekly intervals, and the ventral prostate and seminal vesicles were excised, cleaned of fat and connective tissue, blotted on moist filter paper and weighed to the nearest 0.1 mg.
Ventral prostate weight was used as the endpoint because it is the sensitive organ to androgenic stimulation. Regression analysis was performed by conventional methods using the PROPHET data management system previously identified.
Immature (about 21-day-old) Sprague-Dawley rats were orchidectomized under anesthesia, and randomly assignee to groups of 40 or more. Animals received a single subcutaneous injection of 0.6 mg of the undecanoate in 0.2 ml of an aqueous suspending carrier and/or oily carrier (10% ethanol/90% sesame oil containing 5 mg/ml chlorobutanol as a preservative, or ethyloleate) on the date of the orchidectomy. The enanthate ester was formulated using the 10% ethanol/sesame oil or ethyloleate carrier as a first standard, with the 10% ethanol/sesame oil carrier used as a second standard.
In this example, the carrier used to provide the aqueous suspension was formulated as follows: 1 g benzyl alcohol, 0.5 g sodium carboxylethyl cellulose 50, 0.376 g disodium hydrogen phosphate dihydrate, 1.495 g sodium dihydrogen phosphate dihydrate, with water for injection (WFI) being added to bring volume of the carrier up to 100 ml.
Immature (about 21-day-old) Sprague-Dawley rats were orchidectomized under anesthesia, and randomly assignee to groups of 40 or more. […] The enanthate ester was formulated using the 10% ethanol/sesame oil or ethyloleate carrier as a first standard, with the 10% ethanol/sesame oil carrier used as a second standard.

[1] = Serum levels of the free alcohol after single subcutaneous injection of ester; format: in vivo, Sprague-Dawley rats; conditions: single subcutaneous 0.6 mg suspended in aqueous carrier; 10 week observation period, FIG. 10
Description: as §1

SMILES | ventral prostate weight over time after single subcutaneous injection (in words) (ventral prostate weight; listed as CDB-4521) | AUC of ventral prostate weight, times greater than for testosterone enanthate in oily carrier (ventral prostate weight) | area under the curve (AUC, trapezoidal rule) of ventral prostate weight (ventral prostate weight; single subcutaneous 0.6 mg in aqueous vehicle, 10 week period, FIG. 15) | ventral prostate weight over time after single subcutaneous injection (in words) (ventral prostate weight) | activity in potency and duration after subcutaneous injection (in words), FIG. 5 (ventral prostate weight; 0.6 mg/0.2 ml, aqueous suspension or sesame oil, ventral prostate weight) | AUC of ventral prostate weight over the 10-week period, rank among bucyclate esters (ventral prostate weight; single subcutaneous 0.6 mg suspended in aqueous carrier, FIG. 9) | serum levels of the free alcohol (7α,11β-dimethyl-19-nortestosterone) [1]
CCCCCCCCCCC(=O)O[C@H]1CC[C@H]2[C@H]3[C@H]([C@@H](C)C[C@]12C)[C@H]1CCC(=O)C=C1C[C@H]3C [Compound II, 7α,11β-dimethyl-17β-hydroxyestr-4-en-3-one 17-undecanoate] | most dramatic increases and maintenance of ventral prostate weight | about 3 times | 1817 mg-weeks | – | – | – | –
CCCC[C@H]1CC[C@H](C(=O)O[C@H]2CC[C@H]3[C@H]4[C@H]([C@@H](C)C[C@]23C)[C@H]2CCC(=O)C=C2C[C@H]4C)CC1 (relative stereo) [Compound I, 7α,11β-Dimethyl-17β-hydroxy-4-estren-3-one 17β-trans-4-n-butylcyclohexane carboxylate] | – | about 3 times | – | most dramatic increase and maintenance of ventral prostate weight | far exceeds the activity exhibited by the comparative esters | greatest AUC | highest levels of the free alcohol
